In patent publication US7118895B2, “Process for producing aglycon by using diglycosidase and flavor-improved food containing the aglycon and converting agent to be used in the process” (Amano Enzyme Inc., priority 2000, dated 2006):

Test system: Crude diglycosidase
Assay: Examination of temperature in the conversion into isoflavone aglycons by diglycosidase using soybean materials
Assay type: biochemical, Penicillium multicolor IAM7153
Design: Decomposition efficiency of glycitin family in roasted soy flour / Decomposition efficiency of daidzin family in roasted soy flour / Decomposition efficiency of genistin family in soymilk / Decomposition efficiency of daidzin family in soymilk / Decomposition efficiency of glycitin family in defatted soybean / Decomposition efficiency of daidzin family in defatted soybean: concentration or dose not given beside the values
Outline: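 Soybean materials (50 mg) suspended in 20 mM acetate buffer pH 4.0 reacted with crude diglycosidase diluted to 1.88 AU/mL at 80, 65, 55, 45, 37 or 30° C. Reactions stopped with ethanol at 0, 1, 3 and 6 h; isoflavone glycosides and aglycons in supernatant detected by HPLC.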

[1] = 30° C., heat treatment of enzyme no, reaction time 0 h
[2] = 30° C., heat treatment of enzyme no, reaction time 1 h
[3] = 30° C., heat treatment of enzyme no, reaction time 3 h
[4] = 30° C., heat treatment of enzyme no, reaction time 6 h
[5] = 30° C., heat treatment of enzyme yes, reaction time 6 h
[6] = 30 °C, heat treatment of enzyme: no, 0 h
[7] = 30 °C, heat treatment of enzyme: no, 1 h
[8] = 30 °C, heat treatment of enzyme: no, 3 h
[9] = 30 °C, heat treatment of enzyme: no, 6 h
[10] = 30 °C, heat treatment of enzyme: yes, 6 h
[11] = 45° C., heat treatment of enzyme no, reaction time 0 h
[12] = 45° C., heat treatment of enzyme no, reaction time 1 h
[13] = 45° C., heat treatment of enzyme no, reaction time 3 h
[14] = 45° C., heat treatment of enzyme no, reaction time 6 h
[15] = 45° C., heat treatment of enzyme yes, reaction time 6 h
[16] = 45 °C, heat treatment of enzyme: no, 0 h
[17] = 45 °C, heat treatment of enzyme: no, 1 h
[18] = 45 °C, heat treatment of enzyme: no, 3 h
[19] = 45 °C, heat treatment of enzyme: no, 6 h
[20] = 45 °C, heat treatment of enzyme: yes, 6 h
[21] = 55° C., heat treatment of enzyme no, reaction time 0 h
[22] = 55° C., heat treatment of enzyme no, reaction time 1 h
[23] = 55° C., heat treatment of enzyme no, reaction time 3 h
[24] = 55° C., heat treatment of enzyme no, reaction time 6 h
[25] = 55° C., heat treatment of enzyme yes, reaction time 6 h
[26] = 55 °C, heat treatment of enzyme: no, 0 h
[27] = 55 °C, heat treatment of enzyme: no, 1 h
[28] = 55 °C, heat treatment of enzyme: no, 3 h
[29] = 55 °C, heat treatment of enzyme: no, 6 h
[30] = 55 °C, heat treatment of enzyme: yes, 6 h
[31] = 65° C., heat treatment of enzyme no, reaction time 0 h
[32] = 65° C., heat treatment of enzyme no, reaction time 1 h
[33] = 65° C., heat treatment of enzyme no, reaction time 3 h
[34] = 65° C., heat treatment of enzyme no, reaction time 6 h
[35] = 65° C., heat treatment of enzyme yes, reaction time 6 h
[36] = 65 °C, heat treatment of enzyme: no, 0 h
[37] = 65 °C, heat treatment of enzyme: no, 1 h
[38] = 65 °C, heat treatment of enzyme: no, 3 h
[39] = 65 °C, heat treatment of enzyme: no, 6 h
[40] = 65 °C, heat treatment of enzyme: yes, 6 h
[41] = 80° C., heat treatment of enzyme no, reaction time 0 h
[42] = 80° C., heat treatment of enzyme no, reaction time 1 h
[43] = 80° C., heat treatment of enzyme no, reaction time 3 h
[44] = 80° C., heat treatment of enzyme no, reaction time 6 h
[45] = 80° C., heat treatment of enzyme yes, reaction time 6 h
[46] = 80 °C, heat treatment of enzyme: no, 0 h
[47] = 80 °C, heat treatment of enzyme: no, 1 h
[48] = 80 °C, heat treatment of enzyme: no, 3 h
[49] = 80 °C, heat treatment of enzyme: no, 6 h
[50] = 80 °C, heat treatment of enzyme: yes, 6 h

Q: What does the source list for `O=C(O)CC(=O)OC[C@H]1O[C@@H](Oc2cc(O)c3c(=O)c(-c4ccc(O)cc4)coc3c2)[C@H](O)[C@@H](O)[C@@H]1O` [malonylgenistin, 6″-O-malonylgenistin]?
A: Decomposition efficiency of genistin family in concentrated soybean protein [1]: not detected; Decomposition efficiency of genistin family in defatted soybean [1]: 47.0%; Decomposition efficiency of genistin family in concentrated soybean protein [2]: not detected; Decomposition efficiency of genistin family in defatted soybean [2]: 51.3%; Decomposition efficiency of genistin family in concentrated soybean protein [3]: not detected; Decomposition efficiency of genistin family in defatted soybean [3]: 49.1%; Decomposition efficiency of genistin family in concentrated soybean protein [4]: not detected; Decomposition efficiency of genistin family in defatted soybean [4]: 45.6%; Decomposition efficiency of genistin family in concentrated soybean protein [5]: not detected; Decomposition efficiency of genistin family in defatted soybean [5]: 49.5%; Decomposition efficiency of genistin family in roasted soy flour [6]: not detected; Decomposition efficiency of genistin family in soymilk [6]: 58.5%; Decomposition efficiency of genistin family in roasted soy flour [7]: not detected; Decomposition efficiency of genistin family in soymilk [7]: 56.5%; Decomposition efficiency of genistin family in roasted soy flour [8]: not detected; Decomposition efficiency of genistin family in soymilk [8]: 47.9%; Decomposition efficiency of genistin family in roasted soy flour [9]: not detected; Decomposition efficiency of genistin family in soymilk [9]: 36.1%; Decomposition efficiency of genistin family in roasted soy flour [10]: not detected; Decomposition efficiency of genistin family in soymilk [10]: 57.7%; Decomposition efficiency of genistin family in concentrated soybean protein [11]: not detected; Decomposition efficiency of genistin family in defatted soybean [11]: 47.0%; Decomposition efficiency of genistin family in concentrated soybean protein [12]: not detected; Decomposition efficiency of genistin family in defatted soybean [12]: 49.0%; Decomposition efficiency of genistin family in concentrated soybean protein [13]: not detected; Decomposition efficiency of genistin family in defatted soybean [13]: 46.8%; Decomposition efficiency of genistin family in concentrated soybean protein [14]: not detected; Decomposition efficiency of genistin family in defatted soybean [14]: 44.2%; Decomposition efficiency of genistin family in concentrated soybean protein [15]: not detected; Decomposition efficiency of genistin family in defatted soybean [15]: 48.1%; Decomposition efficiency of genistin family in roasted soy flour [16]: not detected; Decomposition efficiency of genistin family in soymilk [16]: 57.8%; Decomposition efficiency of genistin family in roasted soy flour [17]: not detected; Decomposition efficiency of genistin family in soymilk [17]: 49.4%; Decomposition efficiency of genistin family in roasted soy flour [18]: not detected; Decomposition efficiency of genistin family in soymilk [18]: 34.7%; Decomposition efficiency of genistin family in roasted soy flour [19]: not detected; Decomposition efficiency of genistin family in soymilk [19]: 20.7%; Decomposition efficiency of genistin family in roasted soy flour [20]: not detected; Decomposition efficiency of genistin family in soymilk [20]: 57.2%; Decomposition efficiency of genistin family in concentrated soybean protein [21]: not detected; Decomposition efficiency of genistin family in defatted soybean [21]: 47.0%; Decomposition efficiency of genistin family in concentrated soybean protein [22]: not detected; Decomposition efficiency of genistin family in defatted soybean [22]: 48.8%; Decomposition efficiency of genistin family in concentrated soybean protein [23]: not detected; Decomposition efficiency of genistin family in defatted soybean [23]: 46.1%; Decomposition efficiency of genistin family in concentrated soybean protein [24]: not detected; Decomposition efficiency of genistin family in defatted soybean [24]: 43.4%; Decomposition efficiency of genistin family in concentrated soybean protein [25]: not detected; Decomposition efficiency of genistin family in defatted soybean [25]: 47.8%; Decomposition efficiency of genistin family in roasted soy flour [26]: not detected; Decomposition efficiency of genistin family in soymilk [26]: 59.1%; Decomposition efficiency of genistin family in roasted soy flour [27]: not detected; Decomposition efficiency of genistin family in soymilk [27]: 46.9%; Decomposition efficiency of genistin family in roasted soy flour [28]: not detected; Decomposition efficiency of genistin family in soymilk [28]: 32.5%; Decomposition efficiency of genistin family in roasted soy flour [29]: not detected; Decomposition efficiency of genistin family in soymilk [29]: 20.4%; Decomposition efficiency of genistin family in roasted soy flour [30]: not detected; Decomposition efficiency of genistin family in soymilk [30]: 53.3%; Decomposition efficiency of genistin family in concentrated soybean protein [31]: not detected; Decomposition efficiency of genistin family in defatted soybean [31]: 47.0%; Decomposition efficiency of genistin family in concentrated soybean protein [32]: not detected; Decomposition efficiency of genistin family in defatted soybean [32]: 48.9%; Decomposition efficiency of genistin family in concentrated soybean protein [33]: not detected; Decomposition efficiency of genistin family in defatted soybean [33]: 45.2%; Decomposition efficiency of genistin family in concentrated soybean protein [34]: not detected; Decomposition efficiency of genistin family in defatted soybean [34]: 41.1%; Decomposition efficiency of genistin family in concentrated soybean protein [35]: not detected; Decomposition efficiency of genistin family in defatted soybean [35]: 39.7%; Decomposition efficiency of genistin family in roasted soy flour [36]: not detected; Decomposition efficiency of genistin family in soymilk [36]: 58.5%; Decomposition efficiency of genistin family in roasted soy flour [37]: not detected; Decomposition efficiency of genistin family in soymilk [37]: 48.9%; Decomposition efficiency of genistin family in roasted soy flour [38]: not detected; Decomposition efficiency of genistin family in soymilk [38]: 40.6%; Decomposition efficiency of genistin family in roasted soy flour [39]: not detected; Decomposition efficiency of genistin family in soymilk [39]: 31.8%; Decomposition efficiency of genistin family in roasted soy flour [40]: not detected; Decomposition efficiency of genistin family in soymilk [40]: 44.6%; Decomposition efficiency of genistin family in concentrated soybean protein [41]: not detected; Decomposition efficiency of genistin family in defatted soybean [41]: 47.0%; Decomposition efficiency of genistin family in concentrated soybean protein [42]: not detected; Decomposition efficiency of genistin family in defatted soybean [42]: 43.8%; Decomposition efficiency of genistin family in concentrated soybean protein [43]: not detected; Decomposition efficiency of genistin family in defatted soybean [43]: 32.5%; Decomposition efficiency of genistin family in concentrated soybean protein [44]: not detected; Decomposition efficiency of genistin family in defatted soybean [44]: 20.9%; Decomposition efficiency of genistin family in concentrated soybean protein [45]: not detected; Decomposition efficiency of genistin family in defatted soybean [45]: 20.1%; Decomposition efficiency of genistin family in roasted soy flour [46]: not detected; Decomposition efficiency of genistin family in soymilk [46]: 57.8%; Decomposition efficiency of genistin family in roasted soy flour [47]: not detected; Decomposition efficiency of genistin family in soymilk [47]: 50.4%; Decomposition efficiency of genistin family in roasted soy flour [48]: not detected; Decomposition efficiency of genistin family in soymilk [48]: 37.7%; Decomposition efficiency of genistin family in roasted soy flour [49]: not detected; Decomposition efficiency of genistin family in soymilk [49]: 24.1%; Decomposition efficiency of genistin family in roasted soy flour [50]: not detected; Decomposition efficiency of genistin family in soymilk [50]: 22.9%
